# Source: PubChem BioAssay AID270 (DTP/NCI, 2004)
# “And” between values parts separate entries of the source, which are not always exact repeats. Equal entries are not always repeated. Records with an inconclusive call do not appear.
# Tested on: BDF1 mice, s.c. Lewis lung carcinoma, T/C %
# Assay: NCI In Vivo Anticancer Drug Screen. Data for tumor model Lewis Lung Carcinoma (subcutaneous) in B6D2F1 (BDF1) mice
# How it was run: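 First, mice carry a transplantable tumor. Next, groups receive either compound or vehicle. Finally, survival or tumor dimensions in the dosed animals are divided by the corresponding control figure.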
compound,measurement,setting,value
CC1=C2C(=CC(C)(C)[C@@H]2O)C(=O)[C@](C)(O)C12CC2,T/C,"endpoint: mean tumor weight, dose: 0.12 mg/kg/injection, schedule: Q01DX011 (ip), vehicle: saline, higher = larger tumour",61 % of control
same,T/C,"endpoint: mean tumor weight, dose: 0.18 mg/kg/injection, schedule: Q01DX011 (ip), vehicle: saline, higher = larger tumour",92 % of control
same,T/C,"endpoint: mean tumor weight, dose: 0.26 mg/kg/injection, schedule: Q01DX011 (ip), vehicle: saline, higher = larger tumour",73 % of control
same,T/C,"endpoint: mean tumor weight, dose: 0.4 mg/kg/injection, schedule: Q01DX011 (ip), vehicle: saline, higher = larger tumour",76 % of control
same,T/C,"endpoint: mean tumor weight, dose: 0.6 mg/kg/injection, schedule: Q01DX011 (ip), vehicle: saline, higher = larger tumour",19 % of control
CN1CCCC1,T/C,"endpoint: mean tumor weight, dose: 44.0 mg/kg/injection, schedule: Q01DX011 (ip), vehicle: carboxymethylcellulose (CMC), higher = larger tumour",52 % of control
same,T/C,"endpoint: mean tumor weight, dose: 66.0 mg/kg/injection, schedule: Q01DX011 (ip), vehicle: carboxymethylcellulose (CMC), higher = larger tumour",58 % of control
same,T/C,"endpoint: mean tumor weight, dose: 100.0 mg/kg/injection, schedule: Q01DX011 (ip), vehicle: carboxymethylcellulose (CMC), higher = larger tumour",69 % of control
same,T/C,"endpoint: mean tumor weight, dose: 150.0 mg/kg/injection, schedule: Q01DX011 (ip), vehicle: carboxymethylcellulose (CMC), higher = larger tumour",109 % of control
COC1=C(N)C(=O)c2nc(-c3nc(C(=O)O)c(C)c(-c4ccc(OC)c(OC)c4O)c3N)ccc2C1=O,T/C,"endpoint: mean tumor weight, dose: 0.06 mg/kg/injection, schedule: Q01DX011 (ip), vehicle: water, higher = larger tumour",68 % of control
same,T/C,"endpoint: mean tumor weight, dose: 0.12 mg/kg/injection, schedule: Q01DX011 (ip), vehicle: water, higher = larger tumour",56 % of control
same,T/C,"endpoint: mean tumor weight, dose: 0.25 mg/kg/injection, schedule: Q01DX011 (ip), vehicle: water, higher = larger tumour",42 % of control
same,T/C,"endpoint: median survival time, dose: 62.5 micrograms/kg/injection, schedule: Q01DX009 (ip), vehicle: saline, higher = longer survival",98 % of control
same,T/C,"endpoint: median survival time, dose: 125.0 micrograms/kg/injection, schedule: Q01DX009 (ip), vehicle: saline, higher = longer survival",112 % of control
same,T/C,"endpoint: median survival time, dose: 250.0 micrograms/kg/injection, schedule: Q01DX009 (ip), vehicle: saline, higher = longer survival",98 % of control
Nc1nc(N)c(N=O)c(Nc2ccc(Br)cc2)n1,T/C,"endpoint: mean tumor weight, dose: 10.0 mg/kg/injection, schedule: Q01DX011 (ip), vehicle: other, higher = larger tumour",76 % of control
same,T/C,"endpoint: mean tumor weight, dose: 20.0 mg/kg/injection, schedule: Q01DX011 (ip), vehicle: other, higher = larger tumour",114 % of control
same,T/C,"endpoint: mean tumor weight, dose: 40.0 mg/kg/injection, schedule: Q01DX011 (ip), vehicle: other, higher = larger tumour",70 % of control
same,T/C,"endpoint: mean tumor weight, dose: 80.0 mg/kg/injection, schedule: Q01DX011 (ip), vehicle: other, higher = larger tumour",44 % of control and 45 % of control
same,T/C,"endpoint: mean tumor weight, dose: 160.0 mg/kg/injection, schedule: Q01DX011 (ip), vehicle: other, higher = larger tumour",47 % of control
same,T/C,"endpoint: mean tumor weight, dose: 320.0 mg/kg/injection, schedule: Q01DX011 (ip), vehicle: other, higher = larger tumour",62 % of control
CN(C)C=Nc1ccc2c3c(cccc13)CC2,T/C,"endpoint: median survival time, dose: 6.25 mg/kg/injection, schedule: Q01DX009 (ip), vehicle: Klucel (hydroxypropylcellulose) (HPC), higher = longer survival",108 % of control
same,T/C,"endpoint: median survival time, dose: 12.5 mg/kg/injection, schedule: Q01DX009 (ip), vehicle: Klucel (hydroxypropylcellulose) (HPC), higher = longer survival",107 % of control
same,T/C,"endpoint: median survival time, dose: 25.0 mg/kg/injection, schedule: Q01DX009 (ip), vehicle: Klucel (hydroxypropylcellulose) (HPC), higher = longer survival",122 % of control
N#CC(Cc1ccccc1)C(=O)O (stereo not given),T/C,"endpoint: mean tumor weight, dose: 55.0 mg/kg/injection, schedule: Q01DX011 (ip), vehicle: other, higher = larger tumour",80 % of control
same,T/C,"endpoint: mean tumor weight, dose: 83.0 mg/kg/injection, schedule: Q01DX011 (ip), vehicle: other, higher = larger tumour",68 % of control
same,T/C,"endpoint: mean tumor weight, dose: 125.0 mg/kg/injection, schedule: Q01DX011 (ip), vehicle: other, higher = larger tumour",75 % of control and 82 % of control
same,T/C,"endpoint: mean tumor weight, dose: 187.0 mg/kg/injection, schedule: Q01DX011 (ip), vehicle: other, higher = larger tumour",46 % of control
same,T/C,"endpoint: mean tumor weight, dose: 250.0 mg/kg/injection, schedule: Q01DX011 (ip), vehicle: other, higher = larger tumour",63 % of control
same,T/C,"endpoint: mean tumor weight, dose: 500.0 mg/kg/injection, schedule: Q01DX011 (ip), vehicle: other, higher = larger tumour",19 % of control
CC1CCCCN1 (stereo not given),T/C,"endpoint: mean tumor weight, dose: 12.5 mg/kg/injection, schedule: Q01DX011 (ip), vehicle: saline, higher = larger tumour",95 % of control
same,T/C,"endpoint: mean tumor weight, dose: 25.0 mg/kg/injection, schedule: Q01DX011 (ip), vehicle: saline, higher = larger tumour",85 % of control
same,T/C,"endpoint: mean tumor weight, dose: 50.0 mg/kg/injection, schedule: Q01DX011 (ip), vehicle: saline, higher = larger tumour",80 % of control
CC(C)=CCC1=C(O)c2ccccc2C(=O)C1=O,T/C,"endpoint: mean tumor weight, dose: 45.0 mg/kg/injection, schedule: Q01DX011 (ip), vehicle: water, higher = larger tumour",71 % of control
same,T/C,"endpoint: mean tumor weight, dose: 67.0 mg/kg/injection, schedule: Q01DX011 (ip), vehicle: water, higher = larger tumour",85 % of control
same,T/C,"endpoint: mean tumor weight, dose: 100.0 mg/kg/injection, schedule: Q01DX011 (ip), vehicle: water, higher = larger tumour",93 % of control
CCS(=O)(=O)Nc1cccc(Nc2c3cccc(C)c3nc3c(C)cccc23)c1OC,T/C,"endpoint: median survival time, dose: 12.5 mg/kg/injection, schedule: Q01DX011 (ip), vehicle: saline with Tween-80, higher = longer survival",111 % of control
same,T/C,"endpoint: median survival time, dose: 25.0 mg/kg/injection, schedule: Q01DX011 (ip), vehicle: saline with Tween-80, higher = longer survival",101 % of control
same,T/C,"endpoint: median tumor weight (est.), dose: 12.5 mg/kg/injection, schedule: Q01DX011 (ip), vehicle: saline with Tween-80, higher = larger tumour",82 % of control
same,T/C,"endpoint: median tumor weight (est.), dose: 25.0 mg/kg/injection, schedule: Q01DX011 (ip), vehicle: saline with Tween-80, higher = larger tumour",44 % of control
